Earlier results, collected in patent US20040167145A1, “Active ingredient combination for the pharmacological therapy of nicotine dependence” (priority 2001, published 2004).

Details: clinical studies; compared with 8% for placebo

CC(NC(C)(C)C)C(=O)c1cccc(Cl)c1 (stereo not shown) [bupropion]
1-year abstinence rate: 28%
